From patent publication US11801255B2, “Lipid disulfide prodrugs and uses related thereto” (priority 2017, dated 2023)
Read-outs that look alike come from different tables or passages of the source.

How the values were obtained:
in vitro = format: cell-based, human; conditions: human, Table 1, viability of uninfected cells reduced by 50%, read-out: HIV-1 CC50 (PBMCs)
HIV-1 = test: microbe, parasite or virus in culture; conditions: for HIV-1 potency compared to parent nucleoside TFV: in words; for TI(CC50/EC50): HIV-1, PBMCs
Description: (§1) Compounds synthesized were evaluated against HIV-infected PBMCs and antiviral activity was assessed by measuring reverse transcriptase in cell supernatants. Compounds 11a-e, 12a-e, and 13 were assayed against HBV and qPCR was used to quantify viral DNA following incubation in HepG2.2.15 cells after 6 days.

HBV = test: Antiviral activity against HBV in HepG2.2.15 cells, viral DNA by qPCR after 6 days; conditions: for HBV TI (CC50/EC50): HepG2
Description: as §1

[1] = Stability in PBS (pH 7.4), carbonate/bicarbonate buffer (pH 9) and DMEM by LC-MS; conditions: for half-life: PBS buffer
Description: Compound 11c and 11d were selected as model compounds and subjected to various media including human serum, PBS buffer (pH 7.4), Dulbecco's Modified Eagle Medium (DMEM), and carbonate/bicarbonate buffer (pH 9). Aliquots of each sample were analyzed by LC-MS at varying times points over the course of 2 hours with a final time point at 24 to assess decomposition.
Experiments were performed to see how compounds how compounds 11c and 11d would fare in the presence of base (pH 9), PBS (pH 7.4), and upon exposure to nucleophilic media (DMEM). […] To this end, the stability of hexadecyloxypropyl 2′-deoxy-2′-fluorouridine, a non-labile alkoxyalkyl lipid conjugate of 2′-deoxy-2′-fluorouridine in PBS buffer using Pyrex, Kimax, and silanized glassware was assessed. […] This prompted re-assessment of the PBS stability of the disulfide lipid conjugates in Kimax glassware. Note that all stability experiments were performed in Kimax glassware using hexadecyloxypropyl 2′-deoxy-2′-fluorouridine as an internal standard.

[2] = Stability in human plasma/serum by LC-MS; format: in vitro ADME
Description: Aliquots of each sample were analyzed by LC-MS at varying times points over the course of 2 hours with a final time point at 24 to assess decomposition.

HepG2 = test: Cytotoxicity: viability of uninfected HepG2 cells; format: cell-based; conditions: read-out: HBV CC50 (HepG2)
[3] = Cytotoxicity: viability of uninfected HepG2 cells; format: cell-based; conditions: human, uninfected HepG2 cells; Table 1; uninfected cells; read-out: HBV CC50 (HepG2)
PBMCs = test: in vitro; format: cell-based, human
[4] = Human immunodeficiency virus 1, PBMC, read-out: HIV-1 EC50 (PBMCs)
[5] = Human immunodeficiency virus 1, PBMC, read-out: HIV-1 activity (EC50)
[6] = read-out: HBV EC50 (HepG2), Table 2
[7] = Table 2, read-out: HIV-1 CC50 (PBMCs)
[8] = read-out: HIV-1 EC50 (PBMCs), Table 2
[9] = Table 4, read-out: CC50 (PBMCs)
[10] = read-out: HIV-1 activity (EC50), PBMCs
[11] = read-out: HBV EC50 (HepG2), Table 1, inhibit HBV by 50%
[12] = Table 1, viability of uninfected cells reduced by 50%, read-out: HIV-1 CC50 (PBMCs)
[13] = read-out: HIV-1 EC50 (PBMCs), Table 1, inhibit HIV-1 by 50%, average of triplicate
[14] = read-out: EC50 (PBMCs), Table 4, HIV-1

In the case of `CCCCCCCCCCCCCCCCOCCCOP(=O)(O)CO[C@H](C)Cn1cnc2c(N)ncnc21` [CMX-157, Hexadecyloxypropyl-Tenofovir, reference compound], the CC50 (in vitro) is reported as over 100 µM, the “HIV-1 TI (CC50/EC50)” value (HIV-1) is reported as over 5000 and the EC50 (HIV-1; [4]) is reported as 0.02 µM. It also gave an EC50 (HIV-1; [5]) of 0.02 µM.

For `CCCCCCCCCCCCCCCCSSCCOP(=O)(O)COC(C)Cn1cnc2c(N)ncnc21` (stereo not shown) [Compound 11d, 2-(hexadecyldisulfanyl)ethyl hydrogen (((1-(6-amino-9H-purin-9-yl)propan-2-yl)oxy)methyl)phosphonate], the EC50 (HBV; Hepatitis B virus, HepG2, read-out: HBV EC50 (HepG2)) was 0.02 µM, the EC50 (HBV; Hepatitis B virus, HepG2, read-out: HBV potency) was 0.02 µM and the “HBV TI (CC50/EC50)” value (HBV; Table 1) was over 1250. The “HBV TI (CC50/EC50)” value (HBV; Table 3) was over 1200, the half-life ([1]; carbonate/bicarbonate buffer and DMEM, pH 9) was at most 2 h and the half-life ([1]; pH 7.4) was under 0.333 h. For the same compound, the half-life ([2]; human serum, Kimax glassware, read-out: stability (half-life) in human serum) was over 24 h, the half-life ([2]; human, human plasma, read-out: half-life in human plasma) was over 24 h and the CC50 (in vitro; uninfected PBMCs) was 14.3 µM. It also gave a CC50 (HepG2; Table 3) of over 25 µM, a CC50 [3] of over 25 µM and an EC50 (HIV-1; [4]) of 0.00065 µM. For the same compound, the EC50 (HIV-1; [5]) was about 0.0005 µM, the “HIV-1 TI (CC50/EC50)” value (HIV-1; Table 1, PBMCs) was 22,000 and the “HIV-1 TI (CC50/EC50)” value (HIV-1; Table 3, PBMCs) was 22,000.

With `CCCCCCCCCCCCCCCCCCSSCCOP(=O)(CO[C@H](C)Cn1cnc2c(N)ncnc21)OCCSSCCCCCCCCCCCCCCCCCC` [Compound 12e] the “HBV TI (CC50/EC50)” value (HBV; Table 2) was over 1, the EC50 (HBV; [6]) was over 25 µM and the CC50 (PBMCs; [7]) was over 25 µM. The CC50 (HepG2; Table 2) was over 25 µM, the “HIV-1 TI (CC50/EC50)” value (HIV-1; Table 2, PBMCs) was over 76 and the “HIV-1 potency compared to parent nucleoside TFV” value (HIV-1) was “comparable to TFV”. It also gave an EC50 (HIV-1; [8]) of 0.331 µM.

In the case of `CCCCCCCCCCCCCCCCSSCCOP(=O)(CO[C@H](C)Cn1cnc2c(N)ncnc21)OCCSSCCCCCCCCCCCCCCCC` [Compound 12d], the “HBV TI (CC50/EC50)” value (HBV; Table 2) is reported as over 1, the EC50 (HBV; [6]) is reported as over 25 µM and the CC50 (PBMCs; [7]) is reported as over 25 µM. The CC50 (HepG2; Table 2) was over 25 µM, the “HIV-1 TI (CC50/EC50)” value (HIV-1; Table 2, PBMCs) was 4.0 and the EC50 (HIV-1; [8]) was 6.32 µM.

For `CCCCCCCCCCCCCCCCSSCCOP(=O)(COC(C)Cn1cnc2c(N)ncnc21)Nc1ccccc1` (mixture of isomers) [Compound 20], the CC50 (PBMCs; [9]) was 34.2 µM, the “TI(CC50/EC50)” value (HIV-1; Table 4) was 7,000 and the EC50 (HIV-1; [10]) was 0.005 µM.

In the case of `CCCCCCCCCCCCCCSSCCOP(=O)(O)CO[C@H](C)Cn1cnc2c(N)ncnc21.N` [Compound 11c], the “HBV TI (CC50/EC50)” value (HBV; Table 1) is reported as over 56, the EC50 (HBV; [11]) is reported as 0.444 µM and the “stability of C14 chain relative to C16 linker of compound 11d” value ([1]; all examined media except human serum) is reported as “near two-fold stability increase”. For the same compound, the CC50 (PBMCs; [12]) was 14 µM, the CC50 (HepG2; Table 1, uninfected cells) was over 25 µM and the “HIV-1 TI (CC50/EC50)” value (HIV-1; Table 1, PBMCs) was 28,000. For the same compound, the EC50 (HIV-1; [13]) was 0.0005 µM.

With `CCCCCCCCCCCCCCCCSSCCOP(=O)(COC(C)Cn1cnc2c(N)ncnc21)OC` (mixture of isomers) [Compound 13] the CC50 (PBMCs; [9]) was 38.2 µM, the “TI(CC50/EC50)” value (HIV-1; Table 4) was 1,500 and the EC50 (HIV-1; [10]) was 0.026 µM.

For `C[C@H](Cn1cnc2c(N)ncnc21)OCP(=O)(O)OCCSSCCO` [DTE-TFV, reference compound], the “HBV TI (CC50/EC50)” value (HBV; Table 1) was over 8.6, the EC50 (HBV; [11]) was 11.6 µM and the “t1/2 in human plasma” value ([2]; human plasma) was 0.567 h. For the same compound, the CC50 (PBMCs; [12]) was over 100 µM, the CC50 (HepG2; Table 1, uninfected cells) was over 100 µM and the “fold less active than TFV against HIV-1” value (HIV-1) was 5 fold. For the same compound, the “HIV-1 TI (CC50/EC50)” value (HIV-1; Table 1, PBMCs) was over 62.1 and the EC50 (HIV-1; [13]) was 1.61 µM.

For `CCCCCCCCCCCCCCCCSSCCOP(=O)(COC(C)Cn1cnc2c(N)ncnc21)OCCC` (mixture of isomers) [Compound 15], the CC50 (PBMCs; [9]) was 10.6 µM, the “TI(CC50/EC50)” value (HIV-1; Table 4) was 49.0 and the EC50 (HIV-1; [14]) was 0.216 µM.

With `CCCCCCCCCCCCCCCCSSCCOP(=O)(COC(C)Cn1cnc2c(N)ncnc21)OC(C)CC` (mixture of isomers) [Compound 17] the CC50 (PBMCs; [9]) was 23.7 µM, the “TI(CC50/EC50)” value (HIV-1; Table 4) was 480 and the EC50 (HIV-1; [14]) was 0.049 µM. For the same compound, the “HIV-1 activity of s-Bu ester relative to n-Bu analogue 16” value (HIV-1; vs compound 16) was “nearly four-fold”.

For `CCCCCCCCCCCCCCCCSSCCOP(=O)(COC(C)Cn1cnc2c(N)ncnc21)OCc1ccccc1` (mixture of isomers) [Compound 19], the CC50 (PBMCs; [9]) was 41.1 µM, the “TI(CC50/EC50)” value (HIV-1; Table 4) was 2,300 and the EC50 (HIV-1; [10]) was 0.018 µM.

In the case of `CCCCCCCCCCSSCCOP(=O)(CO[C@H](C)Cn1cnc2c(N)ncnc21)OCCSSCCCCCCCCCC` [Compound 12a], the “HBV TI (CC50/EC50)” value (HBV; Table 2) is reported as over 1, the EC50 (HBV; [6]) is reported as over 100 µM and the CC50 (PBMCs; [7]) is reported as over 100 µM. For the same compound, the CC50 (HepG2; Table 2) was over 100 µM, the “HIV-1 TI (CC50/EC50)” value (HIV-1; Table 2, PBMCs) was over 287 and the “HIV-1 potency compared to parent nucleoside TFV” value (HIV-1) was “comparable to TFV”. The EC50 (HIV-1; [8]) was 0.349 µM.
